Tests used:
human KHK-C = human KHK-C (Homo sapiens (Human), UniProt P50053); experiment: KHK enzyme activity assay, human KHK-C (F1P production, RapidFire MS); format: biochemical; details: fructose 250 μM, ATP 150 μM; average ± SEM; read-out: hKHK-C IC50
Protocol: (§1) KHK Enzyme Activity Assay for Human KHK-C and Human KHK-A
(§2) The intrinsic potency for inhibition of KHK C or A activity may be measured using an enzymatic assay which measures the production of FIP. Compounds are prepared in DMSO and tested in a 10-point concentration curve, to create 3-fold serial dilutions of the compounds in a 96-well plate ranging from 20 μM to 1.02 nM. Enzyme is prepared in assay buffer [50 mM 4-(2-hydroxyethyl)piperazine-1-ethanesulfonic acid (HEPES), 10 mM potassium chloride, 100 mM magnesium chloride, 2 mM tris(2-carboxyethyl)phosphine (TCEP), 0.01% n-octyl glucoside] and incubated with compounds at RT for 15 min. The reaction is carried out in 100 μL volumes containing substrate concentrations of fructose (250 μM for KHK-C assay and 1.25 mM for KHK-A assay) and ATP (150 μM for both isoforms); which are further incubated at RT for 20 min. The reaction is then halted by the addition of stop buffer; consisting of 0.2% formic acid and 1 μg/ml ^13C6-fructose-6-phosphate (^13C6-F6P) internal standard. Plates are stored in −20° C. until RapidFire MS analysis.
(§3) RapidFire MS Analysis for Quantitation of F1P
(§4) An Agilent 300 RapidFire automated extraction system (Agilent, Santa Clara, Calif.) with three HPLC quaternary pumps is coupled to an Agilent 6495 triple quadrupole mass spectrometer (Agilent Technologies, Santa Clara, Calif.) equipped with an electrospray ionization (ESI) interface source. The RapidFire Mass Spec system is equipped with a reusable RapidFire C18 (type C) solid-phase extraction (SPE) cartridge (G9205 Å).
(§5) Solvent A, used for sample loading and washing, is 6 mM octylamine (Acros Organics 129495000) brought to pH 5.0 using acetic acid. Solvent B, used for sample elution, is 20% water in ACN containing 0.1% formic acid. Samples are sequentially analyzed by aspirating 10 μL onto the collection loop under vacuum directly from multiwell plates. The 10 μL of sample is loaded onto the C18 cartridge and washed using solvent A at a flow rate of 1.25 mL/min for 5000 ms. The retained analytes are then eluted to the mass spectrometer using solvent B at a flow rate of 1.25 mL/min for 5000 ms. The system is re-equilibrated using solvent at flow rate of 1.25 mL/min for 2000 ms.
(§6) The triple quadrupole mass spectrometer is equipped with an ESI source and analytes are monitored using selected reaction monitoring (SRM) in negative mode [M−H]−. F1P is monitored at m/z 259.02/96.9 and ^13C6-fructose-6-phosphate is monitored at m/z 264.99/97. The area ratio values for F1P is calculated using ^13C6-fructose-6-phospate as internal standard.

human KHK-A = human KHK-A (Homo sapiens (Human), UniProt P50053); experiment: KHK enzyme activity assay, human KHK-A (F1P production, RapidFire MS); format: biochemical; details: fructose 1.25 mM, ATP 150 μM; average ± SEM; read-out: hKHK-A IC50
Protocol: as §1, §2, §3, §4, §5, §6

Sequence of human KHK-C (P50053 whole entry): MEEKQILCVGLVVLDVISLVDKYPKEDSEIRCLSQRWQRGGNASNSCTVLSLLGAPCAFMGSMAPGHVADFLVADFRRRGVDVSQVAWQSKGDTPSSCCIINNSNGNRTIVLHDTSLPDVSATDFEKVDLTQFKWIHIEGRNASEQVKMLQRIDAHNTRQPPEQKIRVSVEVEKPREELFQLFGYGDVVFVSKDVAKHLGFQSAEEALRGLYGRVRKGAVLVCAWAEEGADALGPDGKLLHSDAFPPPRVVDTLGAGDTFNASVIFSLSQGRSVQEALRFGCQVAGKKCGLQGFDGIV
Sequence of human KHK-A (P50053 other isoform, or with tags, fused parts or gaps): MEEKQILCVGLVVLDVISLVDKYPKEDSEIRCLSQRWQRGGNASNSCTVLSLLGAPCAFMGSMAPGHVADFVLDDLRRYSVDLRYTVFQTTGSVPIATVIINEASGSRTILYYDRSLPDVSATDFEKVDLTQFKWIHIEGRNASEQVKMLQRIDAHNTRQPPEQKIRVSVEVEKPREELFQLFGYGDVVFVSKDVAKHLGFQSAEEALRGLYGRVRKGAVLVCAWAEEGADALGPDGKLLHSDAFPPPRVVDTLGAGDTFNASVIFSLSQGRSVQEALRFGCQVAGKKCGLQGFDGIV

| IC50 (human KHK-C) [nM] | IC50 (human KHK-A) [nM] | SMILES |
| --- | --- | --- |
| 55.2 ± 28.1 | 39.2 ± 13.6 | C[C@H]1CCN1c1nc(-c2cnn(CC(=O)N(CCO)CCO)c2)cc(C(F)(F)F)c1C#N [Example 21, 2-[4-[5-Cyano-6-[(2S)-2-methylazetidin-1-yl]-4-(trifluoromethyl)-2-pyridyl]pyrazol-1-yl]-N,N-bis(2-hydroxyethyl)acetamide] |
| 13.6 ± 7.2 | 16.9 ± 9.7 | C[C@H]1CCN1c1nc(-c2cn[nH]c2)cc(C(F)(F)F)c1C#N [Example 25, 2-[(2S)-2-Methylazetidin-1-yl]-6-(1H-pyrazol-4-yl)-4-(trifluoromethyl)pyridine-3-carbonitrile] |
| 68 | 51 | C[C@H]1CCN1c1nc(-c2cnn(CC(=O)NCCN)c2)cc(C(F)(F)F)n1 [Example 28, N-(2-Aminoethyl)-2-[4-[2-[(2S)-2-methylazetidin-1-yl]-6-(trifluoromethyl)pyrimidin-4-yl]pyrazol-1-yl]acetamide] |
| 150 ± 243 | 81.8 ± 92.6 | C[C@H]1CCN1c1nc(-c2cnn(CC(=O)N3CCN(C)CC3)c2)cc(C(F)(F)F)c1C#N [Example 20, 2-[(2S)-2-Methylazetidin-1-yl]-6-[1-[2-(4-methylpiperazin-1-yl)-2-oxo-ethyl]pyrazol-4-yl]-4-(trifluoromethyl)pyridine-3-carbonitrile] |
| 14.4 ± 1.12 | 11.4 ± 4.34 | C[C@H]1[C@H](O)CN1c1nc(-c2cnn(C3CNC3)c2)cc(C(F)(F)F)n1 [Example 4, (2S,3R)-1-[4-[1-(Azetidin-3-yl)pyrazol-4-yl]-6-(trifluoromethyl)pyrimidin-2-yl]-2-methyl-azetidin-3-ol] |
| 4.9 ± 1.31 | 3.63 ± 1.13 | C[C@H]1CCN1c1nc(-c2cnn(C3CNC3)c2)cc(C(F)(F)F)n1 [Example 33, 4-[1-(Azetidin-3-yl)pyrazol-4-yl]-2-[(2S)-2-methylazetidin-1-yl]-6-(trifluoromethyl)pyrimidine] |
| 8.03 | 5.23 | C[C@H]1CCN1c1nc(-c2cnn(CCO)c2)cc(C(F)(F)F)c1C#N [Example 11, 6-[1-(2-Hydroxyethyl)pyrazol-4-yl]-2-[(2S)-2-methylazetidin-1-yl]-4-(trifluoromethyl)pyridine-3-carbonitrile] |
| 13.3 | 41.5 | C[C@@H]1CN(C(=O)Cn2cc(-c3cc(C(F)(F)F)nc(N4CC[C@@H]4C)n3)cn2)[C@@H](C)CN1 [Example 32, 1-[(2S,5R)-2,5-Dimethylpiperazin-1-yl]-2-[4-[2-[(2S)-2-methylazetidin-1-yl]-6-(trifluoromethyl)pyrimidin-4-yl]pyrazol-1-yl]ethanone] |
| 15.9 ± 4.37 | 19.1 ± 2.98 | C[C@H]1[C@H](O)CN1c1nc(-c2cnn([C@@H]3CCNC3)c2)cc(C(F)(F)F)n1 [Example 14, (2S,3R)-2-Methyl-1-[4-[1-[(3R)-pyrrolidin-3-yl]pyrazol-4-yl]-6-(trifluoromethyl)pyrimidin-2-yl]azetidin-3-ol] |
| 9.21 | 4.63 | C[C@H]1CCN1c1nc(-c2cnn(C3CCNCC3O)c2)cc(C(F)(F)F)c1C#N (stereo partly drawn) [Example 27, 6-[1-(3-Hydroxy-4-piperidyl)pyrazol-4-yl]-2-[(2S)-2-methylazetidin-1-yl]-4-(trifluoromethyl)pyridine-3-carbonitrile] |
| 54.3 | 29.2 | CC(=O)N1CCC(n2cc(-c3cc(C(F)(F)F)c(C#N)c(N4CC[C@@H]4C)n3)cn2)CC1 [Example 19, 6-[1-(1-Acetyl-4-piperidyl)pyrazol-4-yl]-2-[(2S)-2-methylazetidin-1-yl]-4-(trifluoromethyl)pyridine-3-carbonitrile] |
| 34.7 | 70.5 | C[C@H]1CCN1c1nc(-c2cnn(CC(=O)N3CCNC(C)(C)C3)c2)cc(C(F)(F)F)n1 [Example 31, 1-(3,3-Dimethylpiperazin-1-yl)-2-[4-[2-[(2S)-2-methylazetidin-1-yl]-6-(trifluoromethyl)pyrimidin-4-yl]pyrazol-1-yl]ethanone] |
| 57 ± 32.6 | 37.7 ± 19.9 | C[C@H]1CCN1c1nc(-c2cnn(CC(=O)NCCO)c2)cc(C(F)(F)F)c1C#N [Example 5, 2-[4-[5-Cyano-6-[(2S)-2-methylazetidin-1-yl]-4-(trifluoromethyl)-2-pyridyl]pyrazol-1-yl]-N-(2-hydroxyethyl)acetamide] |
| 27.2 ± 8.6 | 26.7 ± 3.66 | C[C@H]1[C@H](O)CN1c1nc(-c2cnn([C@H]3CCNC3)c2)cc(C(F)(F)F)n1 [Example 15, (2S,3R)-2-Methyl-1-[4-[1-[(3S)-pyrrolidin-3-yl]pyrazol-4-yl]-6-(trifluoromethyl)pyrimidin-2-yl]azetidin-3-ol] |
| 61.3 ± 57.5 | 33.7 ± 17.8 | C[C@H]1CCN1c1nc(-c2cnn(CC(=O)N3C[C@@H](O)[C@H](O)C3)c2)cc(C(F)(F)F)c1C#N [Example 22, 6-[1-[2-[(3R,4R)-3,4-Dihydroxypyrrolidin-1-yl]-2-oxo-ethyl]pyrazol-4-yl]-2-[(2S)-2-methylazetidin-1-yl]-4-(trifluoromethyl)pyridine-3-carbonitrile] |
| 7.91 | 7.29 | C[C@H]1CCN1c1nc(-c2cnn(CC(O)CO)c2)cc(C(F)(F)F)c1C#N (stereo partly drawn) [Example 24, 6-[1-(2,3-Dihydroxypropyl)pyrazol-4-yl]-2-[(2S)-2-methylazetidin-1-yl]-4-(trifluoromethyl)pyridine-3-carbonitrile] |
| 16.1 ± 7.96 | 13.2 ± 12.7 | C[C@H]1CCN1c1nc(-c2cnn(C3CNC3)c2)cc(C(F)(F)F)c1C#N [Example 17, 6-[1-(Azetidin-3-yl)pyrazol-4-yl]-2-[(2S)-2-methylazetidin-1-yl]-4-(trifluoromethyl)pyridine-3-carbonitrile] |
| 418 ± 503 | 246 ± 248 | C[C@H]1CCN1c1nc(-c2cnn(CCN(C)C)c2)cc(C(F)(F)F)c1C#N [Example 10, 6-[1-[2-(Dimethylamino)ethyl]pyrazol-4-yl]-2-[(2S)-2-methylazetidin-1-yl]-4-(trifluoromethyl)pyridine-3-carbonitrile] |
| 38.6 | 103 | C[C@H]1CN(C(=O)Cn2cc(-c3cc(C(F)(F)F)nc(N4CC[C@@H]4C)n3)cn2)CCN1 [Example 29, 2-[4-[2-[(2S)-2-Methylazetidin-1-yl]-6-(trifluoromethyl)pyrimidin-4-yl]pyrazol-1-yl]-1-[(3S)-3-methylpiperazin-1-yl]ethanone] |
| 59.2 ± 67.8 | 35.6 ± 32.4 | C[C@H]1CCN1c1nc(-c2cnn(C3CCN(C(=O)CN)CC3)c2)cc(C(F)(F)F)c1C#N [Example 18, 6-[1-[1-(2-Aminoacetyl)-4-piperidyl]pyrazol-4-yl]-2-[(2S)-2-methylazetidin-1-yl]-4-(trifluoromethyl)pyridine-3-carbonitrile] |
| 56.1 ± 62.5 | 25.2 ± 15.7 | C[C@H]1CCN1c1nc(-c2cnn(C3CCN(C)CC3)c2)cc(C(F)(F)F)c1C#N [Example 8, 2-[(2S)-2-Methylazetidin-1-yl]-6-[1-(1-methyl-4-piperidyl)pyrazol-4-yl]-4-(trifluoromethyl)pyridine-3-carbonitrile] |
| 4.89 | 6.75 | C[C@H]1CCN1c1nc(-c2cnn(CC(O)CO)c2)cc(C(F)(F)F)c1C#N (single isomer, unassigned; isomer 2) [Example 24b] |
| 46.3 | 57.8 | C[C@H]1CNCCN1C(=O)Cn1cc(-c2cc(C(F)(F)F)nc(N3CC[C@@H]3C)n2)cn1 [Example 30, 2-[4-[2-[(2S)-2-Methylazetidin-1-yl]-6-(trifluoromethyl)pyrimidin-4-yl]pyrazol-1-yl]-1-[(2S)-2-methylpiperazin-1-yl]ethanone] |
| 2.63 | 1.59 | C[C@H]1[C@H](O)CN1c1nc(-c2cnn(C3CN(C)C3)c2)cc(C(F)(F)F)n1 [Example 35, (2S,3R)-2-Methyl-1-[4-[1-(1-methylazetidin-3-yl)pyrazol-4-yl]-6-(trifluoromethyl)pyrimidin-2-yl]azetidin-3-ol] |
| 3.87 ± 0.391 | 3.65 ± 0.817 | C[C@H]1CCN1c1nc(-c2cnn(C3CCNCC3)c2)cc(C(F)(F)F)c1C#N [Example 12, 2-[(2S)-2-Methylazetidin-1-yl]-6-[1-(4-piperidyl)pyrazol-4-yl]-4-(trifluoromethyl)pyridine-3-carbonitrile] |
